Reference: ChEMBL document CHEMBL1125700, “Conformational properties of semirigid antipsychotic drugs: the pharmacophore for dopamine D-2 antagonist activity” (J Med Chem, 1991)
Several values for one entry are separate records, joined by “and”; a condition that tells them apart may be missing. Identical values can stand only once.

Experiments:
[1] = target: Muscarinic acetylcholine receptor; assay: The compound was tested for binding affinity against muscarinic acetylcholine receptor using QNB as radioligand; format: protein assay
[2] = target: T1, Sigma non-opioid intracellular receptor 1 (Homo sapiens, UniProt Q99720); assay: The compound was tested for binding affinity against sigma receptor using DTG as radioligand
[3] = target: Muscarinic acetylcholine receptor; assay: The compound was tested for binding affinity against Muscarinic acetylcholine receptor using QNB as radioligand; format: protein assay
[4] = target: T1, Sigma non-opioid intracellular receptor 1; assay: The compound was tested for binding affinity against Sigma opioid receptor using DTG as radioligand
D(2) dopamine receptor [5] = target: T2, D(2) dopamine receptor (Homo sapiens, UniProt P14416); assay: The compound was tested for binding affinity against Dopamine receptor D2 using raclopride as radioligand
[6] = target: Serotonin 2 (5-HT2) receptor (Homo sapiens, UniProt P41595+P28223+P28335); assay: The compound was tested for binding affinity against 5-hydroxytryptamine 2 receptor using ketanserin as radioligand; format: protein assay
[7] = target: T3, Alpha-1A adrenergic receptor (Homo sapiens, UniProt P35348); assay: The compound was tested for binding affinity against Alpha-1 adrenergic receptor using WB-4101 as radioligand
T3 sequence (P35348 whole entry): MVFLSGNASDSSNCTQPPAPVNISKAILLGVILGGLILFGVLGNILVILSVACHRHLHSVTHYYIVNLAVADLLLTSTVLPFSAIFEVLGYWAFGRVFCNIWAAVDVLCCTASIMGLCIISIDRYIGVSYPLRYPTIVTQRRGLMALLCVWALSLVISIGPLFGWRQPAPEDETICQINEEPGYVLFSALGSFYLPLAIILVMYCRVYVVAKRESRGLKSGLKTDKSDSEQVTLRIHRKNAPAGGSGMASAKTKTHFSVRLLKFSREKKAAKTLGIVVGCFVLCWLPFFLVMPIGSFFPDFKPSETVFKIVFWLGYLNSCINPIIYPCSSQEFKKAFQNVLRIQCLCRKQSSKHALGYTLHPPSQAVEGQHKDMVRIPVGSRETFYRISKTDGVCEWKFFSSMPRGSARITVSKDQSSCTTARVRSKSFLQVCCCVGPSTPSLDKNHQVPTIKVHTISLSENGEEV

D(1A) dopamine receptor [8] = target: T4, D(1A) dopamine receptor (Homo sapiens, UniProt P21728); assay: The compound was tested for binding affinity against Dopamine receptor D1 using SCH-23390 as radioligand
D(2) dopamine receptor [9] = target: T2, D(2) dopamine receptor; assay: The compound was tested for binding affinity against dopamine receptor D2 using raclopride as radioligand
D(1A) dopamine receptor [10] = target: T4, D(1A) dopamine receptor; assay: Binding affinity determined in radioreceptor binding assay by using [3H]SCH-23390 radioligand against dopamine receptor D1

T1 sequence (Q99720 whole entry): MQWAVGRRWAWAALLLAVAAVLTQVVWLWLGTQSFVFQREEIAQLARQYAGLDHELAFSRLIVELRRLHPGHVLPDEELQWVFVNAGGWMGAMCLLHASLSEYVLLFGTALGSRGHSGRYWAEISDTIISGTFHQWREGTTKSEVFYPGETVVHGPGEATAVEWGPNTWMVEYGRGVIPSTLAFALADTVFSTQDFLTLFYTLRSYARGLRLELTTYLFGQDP
T2 sequence (P14416 whole entry): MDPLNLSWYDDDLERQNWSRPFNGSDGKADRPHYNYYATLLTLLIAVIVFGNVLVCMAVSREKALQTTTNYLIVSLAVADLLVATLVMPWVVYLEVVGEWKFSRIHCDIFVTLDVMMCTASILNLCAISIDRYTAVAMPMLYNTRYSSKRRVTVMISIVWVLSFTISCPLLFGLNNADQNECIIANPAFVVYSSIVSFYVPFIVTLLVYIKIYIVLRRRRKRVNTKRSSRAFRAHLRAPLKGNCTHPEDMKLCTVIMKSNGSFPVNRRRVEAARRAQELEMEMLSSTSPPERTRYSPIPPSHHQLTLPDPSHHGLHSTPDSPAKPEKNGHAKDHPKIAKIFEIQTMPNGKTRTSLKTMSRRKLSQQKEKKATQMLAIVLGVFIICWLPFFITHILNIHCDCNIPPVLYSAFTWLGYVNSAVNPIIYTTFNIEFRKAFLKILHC
T4 sequence (P21728 whole entry): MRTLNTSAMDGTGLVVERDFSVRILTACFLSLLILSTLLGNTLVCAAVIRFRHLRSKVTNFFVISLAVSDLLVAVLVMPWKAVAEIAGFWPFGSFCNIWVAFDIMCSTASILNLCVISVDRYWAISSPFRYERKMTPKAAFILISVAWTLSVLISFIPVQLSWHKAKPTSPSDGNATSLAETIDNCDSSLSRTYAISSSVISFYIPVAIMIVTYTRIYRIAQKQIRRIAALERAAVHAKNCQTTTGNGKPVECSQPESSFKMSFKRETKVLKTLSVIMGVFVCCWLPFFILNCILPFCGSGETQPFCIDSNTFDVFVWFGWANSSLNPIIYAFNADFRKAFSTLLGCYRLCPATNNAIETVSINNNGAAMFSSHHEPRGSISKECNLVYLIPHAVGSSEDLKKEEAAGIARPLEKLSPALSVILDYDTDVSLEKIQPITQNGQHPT

Row | Ki [1] | Ki [2] | Ki [3] [nM] | Ki [4] [nM] | Ki (D(2) dopamine receptor [5]) [nM] | Ki [6] [nM] | Ki [7] [nM] | Ki (D(1A) dopamine receptor [8]) [nM] | Ki (D(2) dopamine receptor [9]) [nM] | Ki (D(1A) dopamine receptor [10]) [nM] | Compound
1 | 94 nM and 43 nM | 550 nM and 1400 nM | – | – | – | – | – | – | – | – | CN(C)C1C=CC2(CC1)c1ccccc1CCc1ccc(Cl)cc12 (centres undefined)
2 | – | – | 7.2 | 800 | 6.5 | 1.3 | 61 | 3.1 | – | – | CN(C)C1C=CC2(CC1)c1ccccc1C=Cc1ccc(Cl)cc12 (single isomer, unassigned; enantiomer 2)
3 | 4.3 nM | 1600 nM | – | – | – | 1 | 36 | – | 0.66 | 0.3 | CN(C)C1C=CC2(CC1)c1ccccc1C=Cc1ccc(Cl)cc12 (centres undefined)
